In ChEMBL document CHEMBL1201862, “PubChem BioAssay data set” (2004):
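Results reflect a 48-hour exposure of cells in 96-well plates to compound at five concentrations. At the GI50, growth is halved.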 Activity calls are given as the source filed them. Cut-off read from the data, not from the text of the source: active = GI50 up to about 1.1 µM and inactive = higher.

Key:
Assay in all cases: growth of human tumour cells (NCI), 48 h
RXF 631 = test system: RXF 631
LXFL 529 = test system: LXFL 529
HOP-18 = test system: HOP-18
DLD-1 = test system: DLD-1
DMS-114 = test system: DMS-114
KM-20L2 = test system: KM-20L2
XF498 = test system: XF498
DMS-273 = test system: DMS-273
SNB-78 = test system: SNB-78

Measured: GI50

CCCN(CCC)C(=O)C(=O)c1c(N)[nH]n(-c2ccccc2)c1=O
inactive: RXF 631 > 100 µM | LXFL 529 66.2 µM | HOP-18 > 100 µM | DLD-1 78.3 µM | DMS-114 > 100 µM | KM-20L2 > 100 µM | XF498 > 100 µM | DMS-273 > 100 µM | SNB-78 > 100 µM

Cc1ccc2c(c1)-c1c3c(nn1-c1ccccc1)-c1ccccc1SC3O2 (stereo not drawn)
inactive: RXF 631 2.65 µM | LXFL 529 > 100 µM | HOP-18 > 100 µM | DLD-1 > 100 µM | DMS-114 > 100 µM | KM-20L2 > 100 µM | XF498 > 100 µM | DMS-273 > 100 µM | SNB-78 > 100 µM
